Reference: ChEMBL document CHEMBL2062378, “Antimycobacterial activity: a facile three-component [3+2]-cycloaddition for the regioselective synthesis of highly functionalised dispiropyrrolidines” (Bioorg Med Chem Lett, 2012)
Values after ≈ are worked out from the molar mass of the structure shown.

Tested on: Mycobacterium tuberculosis
Experiment: Antimycobacterial activity against INH-resistant Mycobacterium tuberculosis by alamar blue broth microdilution assay
Assay type: functional

SMILES	MIC90
CN1CC(c2ccc(OC(F)(F)F)cc2)C2(Cc3ccccc3C2=O)C12C(=O)c1ccccc1C2=O (stereo not drawn)	12.2 µM (≈ 6 µg/mL)
CN1CC(c2ccc(Cl)cc2)C2(Cc3ccccc3C2=O)C12C(=O)c1ccccc1C2=O (stereo not drawn)	24.2 µM (≈ 10.7 µg/mL)
CN1CC(c2ccccc2)C2(Cc3ccccc3C2=O)C12C(=O)c1ccccc1C2=O (stereo not drawn)	26.2 µM (≈ 10.7 µg/mL)
CN1CC(c2cccc3c2OCO3)C2(Cc3ccccc3C2=O)C12C(=O)c1ccccc1C2=O (stereo not drawn)	32.4 µM (≈ 14.6 µg/mL)
CN1CC(c2ccc(C(=O)O)cc2)C2(Cc3ccccc3C2=O)C12C(=O)c1ccccc1C2=O (stereo not drawn)	18.3 µM (≈ 8.26 µg/mL)
CN1CC(c2cncc(-c3ccc(F)cc3)c2)C2(Cc3ccccc3C2=O)C12C(=O)c1ccccc1C2=O (stereo not drawn)	5.12 µM (≈ 2.57 µg/mL)
COc1ccc(C2CN(C)C3(C(=O)c4ccccc4C3=O)C23Cc2ccccc2C3=O)cc1 (stereo not drawn)	> 6.25 µM
CN1CC(c2ccc(N3CCOCC3)cc2)C2(Cc3ccccc3C2=O)C12C(=O)c1ccccc1C2=O (stereo not drawn)	27.2 µM (≈ 13.4 µg/mL)
CN1CC(c2cccc([N+](=O)[O-])c2)C2(Cc3ccccc3C2=O)C12C(=O)c1ccccc1C2=O (stereo not drawn)	16.8 µM (≈ 7.61 µg/mL)
CN(C)c1ccc(C2CN(C)C3(C(=O)c4ccccc4C3=O)C23Cc2ccccc2C3=O)cc1 (stereo not drawn)	43.3 µM (≈ 19.5 µg/mL)
CN1CC(c2ccc(C(F)(F)F)cc2)C2(Cc3ccccc3C2=O)C12C(=O)c1ccccc1C2=O (stereo not drawn)	13.6 µM (≈ 6.48 µg/mL)
CN1CC(c2ccc(Br)cc2)C2(Cc3ccccc3C2=O)C12C(=O)c1ccccc1C2=O (stereo not drawn)	21.4 µM (≈ 10.4 µg/mL)
NNC(=O)c1ccncc1 [ISONIAZID]	11.2 µM (≈ 1.54 µg/mL)
